Test results from patent US7417122B2, “Mammalian galanin receptors” (Schering Corporation, priority 1997, dated 2008).
Non-standard residues stand in square brackets, D forms with d. Residues, ends and D or L forms follow the SMILES beside them.

Target: T1, rat GalR3 receptor (Rattus norvegicus, UniProt O88626)
T1 construct: expressed in transfected cells; host or cells: COS-7 cells (ATCC CRL 1651), transient electroporation with pCR 3.1; membrane preparation
T1 sequence (O88626 1-370 P53Q/R54G/T57Q/P127Q/R137C/A150G/W176L/A183R/T188A/F210L/C272I/R311C): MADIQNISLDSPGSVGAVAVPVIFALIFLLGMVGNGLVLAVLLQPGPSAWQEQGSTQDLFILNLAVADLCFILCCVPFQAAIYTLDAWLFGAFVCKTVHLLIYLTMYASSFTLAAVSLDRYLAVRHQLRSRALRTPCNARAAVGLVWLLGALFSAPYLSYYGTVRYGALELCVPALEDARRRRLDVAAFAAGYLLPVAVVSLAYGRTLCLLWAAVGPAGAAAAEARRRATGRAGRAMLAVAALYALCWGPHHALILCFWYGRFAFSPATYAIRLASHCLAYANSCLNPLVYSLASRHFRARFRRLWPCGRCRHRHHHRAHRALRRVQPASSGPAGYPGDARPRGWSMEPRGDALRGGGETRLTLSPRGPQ
Experiment: 125I-porcine galanin competition binding to membranes of COS-7 cells transfected with rat GalR3 receptor
Conditions: FIG. 2, 125I-porcine galanin binding to rat GalR3 membranes
Description: Transfection was carried out as follows. Confluent COS-7 cells (ATCC CRL 1651) grown in DMEVI supplemented with 10% fetal calfserum (FCS) with 100 units/ml penicillin and 100 μg/ml streptomycin were split 1:6 into 150 mm dishes (Nunc) three days prior to transfection. On the day of transfection, the cells were approximately 90% confluent and trypsinized off plates and washed two times with PBS without Mg^++ and Ca^++. The cells were resuspended in Krebs Ringer's buffer at a density of approximately 1.2×10^7 cells/ml. […]
To each plate, 5 ml of 5 mM Hepes buffer (pH 7.4), 0.1 mM PMSF, and 0.1 mg/ml bacitracin were added and incubated at room temperature for 15 minutes. […] Protein concentrations were determined using a […] (bicinchoninic acid) method (Pierce, Rockford, Ill.).
Binding of ^125I-porcine-galanin to the membrane preparations was performed in a buffer containing 25 mM Tris-Cl (pH7.4), 1% bovine serim albumin (w/v), 0.1% bacitracin, 2 μg/ml leupeptin and 10 mM MgCl2. […] All data were analyzed using non-linear regression software (Prism, GraphPad, San Diego, Calif.), and the Ki was calculated using the method of Cheng and Prusoff [Biochem. Pharmacol. 22:3099-3108 (1973)].

## CC(C)C[C@H](NC(=O)[C@H](CC(C)C)NC(=O)[C@@H](Cc1c[nH]c2ccccc12)NC(=O)[C@H](Cc1ccccc1)NC(=O)[C@@H](Cc1c[nH]c2ccccc12)NC(=O)[C@H](CCC(N)=O)NC(=O)[C@H](CCC(N)=O)NC(=O)[C@@H]1CCCN1C(=O)[C@H](CCCCN)NC(=O)[C@@H]1CCCN1C(=O)[C@@H](CCCNC(=N)N)NC(=O)[C@@H]1CCCN1C(=O)CNC(=O)[C@H](CC(C)C)NC(=O)[C@H](CC(C)C)NC(=O)[C@H](Cc1ccc(O)cc1)NC(=O)CNC(=O)[C@H](C)NC(=O)[C@H](CO)NC(=O)[C@H](CC(N)=O)NC(=O)[C@H](CC(C)C)NC(=O)[C@@H](NC(=O)[C@H](Cc1c[nH]c2ccccc12)NC(=O)CN)[C@@H](C)O)C(N)=O [chimeric galanin peptide C7] (H-GWTLNSAGYLLGP[dR]PKPQQ[dW]F[dW]LL-NH2; N-terminus and C-terminus assumed)
  competitive inhibition of the labeled galanin: competitive inhibitors

## CC[C@H](C)[C@H](NC(=O)[C@H](C)NC(=O)[C@H](Cc1c[nH]cn1)NC(=O)[C@@H]1CCCN1C(=O)CNC(=O)[C@H](CC(C)C)NC(=O)[C@H](CC(C)C)NC(=O)[C@H](Cc1ccc(O)cc1)NC(=O)CNC(=O)[C@H](C)NC(=O)[C@H](CO)NC(=O)[C@H](CC(N)=O)NC(=O)[C@H](CC(C)C)NC(=O)[C@@H](NC(=O)[C@@H](N)Cc1c[nH]c2ccccc12)[C@@H](C)O)C(=O)N[C@@H](CC(=O)O)C(=O)N[C@@H](CC(N)=O)C(=O)N[C@@H](Cc1c[nH]cn1)C(=O)N[C@@H](CCCNC(=N)N)C(=O)N[C@@H](CO)C(=O)N[C@@H](Cc1ccccc1)C(=O)N[C@@H](CO)C(=O)N[C@@H](CC(=O)O)C(=O)N[C@@H](CCCCN)C(=O)N[C@@H](Cc1c[nH]cn1)C(=O)NCC(=O)N[C@@H](CC(C)C)C(=O)N[C@H](C(N)=O)[C@@H](C)O [galanin(2-29)]
  competitive inhibition of the labeled galanin: competitive inhibitors
